Data published in patent US4656142A, “Organometallic complexes of estrogens and their application to the determination of hormone receptors” (Centre National de la Recherche Scientifique, priority 1982, dated 1987).

Molecular target: T1, estradiol receptor (Homo sapiens, UniProt P03372)
T1 construct: from tissue; host or cells: ewe uterine cytosol (inferred from the sister test)
Assay: ability to compete with estradiol for the receptor (log/logit curves, Rao et al.); relative binding affinity
Details: competition with estradiol, estradiol = 100
From the text: It must be point out that the further the RBA value (relative binding affinity) is from 100, the lower the competitiveness of the steroid tested.

T1 sequence (P03372 whole entry): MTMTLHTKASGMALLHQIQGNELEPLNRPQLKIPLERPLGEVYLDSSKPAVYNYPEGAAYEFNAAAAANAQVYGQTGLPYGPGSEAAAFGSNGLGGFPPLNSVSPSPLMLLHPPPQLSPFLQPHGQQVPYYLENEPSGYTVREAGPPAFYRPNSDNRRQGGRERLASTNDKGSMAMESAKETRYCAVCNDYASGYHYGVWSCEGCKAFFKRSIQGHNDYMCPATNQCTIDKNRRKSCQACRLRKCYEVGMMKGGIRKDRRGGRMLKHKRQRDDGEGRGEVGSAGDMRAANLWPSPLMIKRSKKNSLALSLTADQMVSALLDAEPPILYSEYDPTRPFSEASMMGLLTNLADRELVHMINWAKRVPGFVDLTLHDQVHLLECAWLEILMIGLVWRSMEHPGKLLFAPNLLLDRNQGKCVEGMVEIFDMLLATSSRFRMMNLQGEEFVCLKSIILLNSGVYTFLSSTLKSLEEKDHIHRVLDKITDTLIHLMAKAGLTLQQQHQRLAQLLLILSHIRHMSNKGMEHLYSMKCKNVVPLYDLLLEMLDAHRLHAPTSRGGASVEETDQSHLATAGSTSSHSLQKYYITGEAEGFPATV

## CC(C)(C)[Si](C)(C)Oc1ccc2c(c1)CC[C@@H]1[C@@H]2CC[C@]2(C)[C@@H](O)CC[C@@H]12 [Compound 1, monosilylated β-estradiol]
  RBA (%) (relative binding affinity): 11%
